Drawing on ChEMBL document CHEMBL1152184, “A micellar prodrug of paclitaxel conjugated to cyclotriphosphazene” (Bioorg Med Chem Lett, 2008), this text covers IC50 for one compound.

Structures are written as SMILES.

The experiment concerns A-431. In words: Cytotoxicity against human A431 cells after 72 hrs by SRB method. Format: functional, cell-based. As to conditions: A-431, 72 h.

Broadly, the IC50 is the concentration at which inhibition is half-maximal. The low end stands for greater potency, the high end for weaker potency. For `CC(=O)O[C@H]1C(=O)[C@@]2(C)[C@H]([C@H](OC(=O)c3ccccc3)[C@]3(O)C[C@H](OC(=O)[C@H](O)[C@@H](NC(=O)c4ccccc4)c4ccccc4)C(C)=C1C3(C)C)[C@]1(OC(C)=O)CO[C@@H]1C[C@@H]2O` [PACLITAXEL], the IC50 is 25.1 nM.
